Where two headings read alike, the source gives them in different places.
What was measured:
[1] = tested on: granulocytes; format: in vitro ADME; settings: human, 180 min, 10 μM
Procedure: (§1) Granulocytes were obtained from heparinized whole blood using density gradiant centrifugation. Erythrocytes were sedimented on 3% dextran T-500 (Amersham Pharmacia Biotech AB, Uppsala, Sweden). Leukocytes were centrifuged on Ficoll (Amersham Pharmacia Biotech AB, Uppsala, Sweden) for 35 min at 600 g at 20° C. The pellet of granulocytes was cleared from remaining erythrocytes by a brief hypotonic lysis.
7.5×10^6 granulocytes, isolated as described above, were suspended in 3 mL of RPMI 1640 (Institute of Immunology, Croatia) containing 10 μM of tested macrolide. Samples were incubated at 37° C. for 180 min. Following incubation, the samples were centrifuged through the layer of Poly(dimethylsiloxane-co-diphenylsiloxane), dihydroxy terminated-silicone oil (Aldrich Chemical Company, Milwaukee, USA). The pellet was resuspended in 0.5% Triton X-100 (Sigma, St. Louis, USA) in deionized water (MilliQ, Millipore Corporation, Bedford, USA). The suspension was sonicated, proteins were precipitated with acetonitrile, and the concentration of macrolide in the supernatants was determined by liquid chromatography-mass spectrometry (LC-MS).
Intracellular concentrations of the test compounds were calculated from the mean cell number recovered after centrifuging through silicone oil. According to the literature, about 1 million neutrophils is considered to have a volume of 0.24 μL (Vazifeh et al., Antimicrob Agents Chemo. 1997; 41: 2099-2107). To estimate the extent of macrolide accumulation, the intracellular to extracellular concentration ratio (I/E) was calculated, where E (due to a large volume of incubation medium) was taken as constant (10 μM). Results are expressed relative to azithromycin according to the following equation: % of azithromycin uptake =(I/E of a substance/I/E of azithromycin)×100. I/E values obtained for azithromycin were 164±10.

[2] = tested on: neutrophils; assay: Lung neutrophilia induced by bacterial lipopolysaccharide in male BALB/cJ mice: cells in BALF and lung tissue; format: in vivo; settings: 5 mg i.p.; 24 hours after LPS
Procedure: (§2) Male BALB/cJ mice (Iffa Credo, France), with average weight 30 g were randomly grouped (n=7 in testing group, 8 in positive control, 7 in negative control). Mice were administered intraperitoneally (i.p.) a single dose of 5 or 2.5 mg of test compound. Two hours after administration, 2 μg of bacterial lipopolysaccharide (LPS), dissolved in PBS in a volume of 60 μL, was intranasally administered to all experimental groups except the negative control group, which received the same volume (60 μL) of vehicle PBS. Animals were sacrificed approximately 24 hours after application of LPS in order to obtain bronchoalveolar lavage fluid (BALF), which was used to determine concentrations of IL-6 and TNF-α, absolute number of cells, and the percentage of neutrophils in BALF. Results are expressed as percentage of decrease of total cell number, relative number of neutrophils, and TNF-α, and IL-6 concentration in BALF of treated animals compared to positive control (LPS stimulated, but untreated animals).
(§3) Results are expressed as percentage of decrease of total cell number, relative number of neutrophils, and TNF-alpha and IL-6 concentration in BALF of treated animals compared to positive control (LPS stimulated, but untreated animals).
Besides accumulation of inflammatory cells in BALF, the extent and anatomic site of pulmonary inflammation induced by LPS was assessed 24 hours after PBS or LPS exposure. Accumulation of granulocytes and mononuclear cells in peribronchial (PB) and perivascular (PV) lung tissue areas and in alveolar spaces was monitored following sacrifice of the animals.

[3] = tested on: TNF-α; assay: Lung neutrophilia induced by bacterial lipopolysaccharide in male BALB/cJ mice: TNF-α in BALF; format: in vivo; settings: 5 mg i.p.; 24 hours after LPS
Procedure: as §2, §3

[4] = tested on: IL-6; assay: Lung neutrophilia induced by bacterial lipopolysaccharide in male BALB/cJ mice: IL-6 in BALF; format: in vivo; settings: 5 mg i.p.; 24 hours after LPS
Procedure: as §2, §3

[5] = tested on: granulocytes; assay: Inhibition of degranulation of granulocytes (free neutrophil elastase activity); format: cell-based, human; settings: Homo sapiens, Neutrophil, read-out: Percentage of inhibition of degranulation of granulocytes; for inhibition at 50 µM: compound 50 μM; for inhibition at 10 µM: compound 10 μM
Procedure: as §1
1×10^6 granulocytes, isolated as described above, were resuspended in RPMI-1640 medium (Institute of Immunology, Croatia), and were incubated with 10 or 50 μM of test compound together with cytochalasine B (5 μg/mL) for 2 h at 37° C. Degranulation then was induced by the addition of 0.1 μM fMLP (Sigma, USA) or 0.5 μM A23187 (Calbiochem, USA). The activity of free neutrophil elastase was determined with a chromogenic substrate specific for human neutrophil elastase, such as N-(methoxysuccinyl)-L-alanyl-L-alanyl-L-prolyl-L-valine 4-nitroanilide (Sigma Chemical Company, St Louis, Mo., USA). Elastase activity, as a marker of primary granules, was assessed in supernatant using a spectrophotometer at an absorbance of 405 nm.
Results are expressed as the percent of inhibition of degranulation in unstimulated cells, and in stimulated cells treated with fMLP or A23187.

[6] = tested on: LPS-induced septic shock; assay: Septic shock induced by bacterial lipopolysaccharide in male BALB/cJ mice; format: in vivo; settings: 24 hours
Procedure: Male BALB/cJ mice, (Iffa Credo, Lyon, France) 8 weeks old, weighing 25 g were randomly grouped (n=10 in testing groups and 15 in control group). Animals were primed with 4 μg bacterial lipopolysaccharide (LPS) that was dissolved in saline and administered i.pl. After 18-24 hours animals were challenged by an intravenous injection of 90 μg LPS in a volume of 0.2 mL. Animals were treated with the test compounds or the vehicle (control) intraperitoneally . . . or per os 30 min prior to each injection of LPS. Survival throughout 24 hours was monitored.

[7] = tested on: IL-5; assay: Inhibition of IL-5 production by PHA-stimulated human PBMC in vitro; format: cell-based; settings: Homo sapiens, 72 h, 3 days, read-out: Percentage of inhibition of IL-5 production
Procedure: (§4) Heparinized peripheral blood was obtained from healthy donors, and peripheral blood mononuclear cells (PBMC) were isolated by Histopaque 1077 (Sigma, USA) density centrifugation at 400×g for 30 minutes. Collected PBMC were centrifuged in plasma at 400×g for 10 min, resuspended and washed in RPMI 1640 (Institute of Immunology, Croatia) by centrifugation.
(§5) Peripheral blood mononuclear cells (PBMC), isolated as described above, were seeded in a 48-well plate at a concentration of 1×10^6 cells per well in the RPMI culture medium described above. Cells were stimulated with 10 μg/mL phytohaemagglutinin (PHA) (Sigma, USA) and incubated at 37° C., 5% CO2 in 90% humidity with tested compounds (10 and 50 μM) for 3 days. Cytokine concentrations were determined in supernatants by sandwich ELISA, using capture and detection antibodies (R&D, USA) according to the manufacturer's recommendations.
(§6) Inhibition (as percentage) was calculated using the following formula: % inhibition=(1−concentration of cytokines in sample/concentration of cytokines in positive control)×100.
(§7) The positive control refers to LPS-, PMA- or zymosan-stimulated samples that were not treated with test compounds.

[8] = tested on: IL-2; assay: Inhibition of IL-2 production by PHA-stimulated human PBMC in vitro; format: cell-based; settings: Homo sapiens, 72 h, 3 days, read-out: Percentage of inhibition of IL-2 production
Procedure: as §4, §5, §6, §7

| SMILES | Uptake (% azithromycin) [1] [% azithromycin] | % decrease of neutrophils in BALF [2] [%] | % decrease of total cell no. in BALF [2] [%] | Percentage of decrease of TNF-α concentration in BALF [3] [%] | Percentage of decrease of IL-6 concentration in BALF [4] [%] | also measured |
| --- | --- | --- | --- | --- | --- | --- |
| CC[C@H]1OC(=O)[C@H](C)[C@@H](O[C@H]2C[C@@](C)(OC)[C@@H](OC(=O)CCN(CC)CC)[C@H](C)O2)[C@H](C)[C@@H](O[C@@H]2O[C@H](C)C[C@H](N(C)C)[C@H]2O)[C@](C)(OC)C[C@@H](C)C(=O)[C@H](C)[C@H]2NC(=O)O[C@@]21C [Example 9, 11,12-Carbamate-11,12-dideoxy-4″-O-(3-diethylamino-propionyl)-6-O-methyl-erythromycin A] | 412 | – | – | – | – | – |
| CC[C@H]1OC(=O)[C@H](C)[C@@H](O[C@H]2C[C@@](C)(OC)[C@@H](OC(=O)CCN(CC)CC)[C@H](C)O2)[C@H](C)[C@@H](O[C@@H]2O[C@H](C)C[C@H](NC)[C@H]2O)[C@](C)(OC)C[C@@H](C)C(=O)N[C@H](C)[C@@H](O)[C@]1(C)O [Example 54, 3′-N-Demethyl-4″-O-(3-diethylaminopropionyl)-6-O-methyl-9a-aza-9a-homoerythromycin A] | – | 70 | 90 | 100 | 100 | – |
| CC[C@H]1OC(=O)[C@H](C)[C@@H](O[C@H]2C[C@@](C)(OC)[C@@H](OC(=O)CCN(CC)CC)[C@H](C)O2)[C@H](C)[C@@H](O[C@@H]2O[C@H](C)C[C@H](N(C)C)[C@H]2O)[C@](C)(O)C[C@@H](C)CN(C)[C@H](C)[C@@H](O)[C@]1(C)O [Example 48, 4″-O-(3-diethylamino-propionyl)-azithromycin] | 125 | 66 | 79 | 85 | 9 | – |
| CC[C@H]1OC(=O)[C@H](C)[C@@H](O[C@H]2C[C@@](C)(OC)[C@@H](OC(=O)CCN(CC)CC)[C@H](C)O2)[C@H](C)[C@@H](O[C@@H]2O[C@H](C)C[C@H](N(C)C)[C@H]2O)[C@](C)(OC)C[C@@H](C)NC(=O)[C@H](C)[C@@H](O)[C@]1(C)O [Example 3, 4″-O-(3-Diethylamino-Propionyl)-6-O-methyl-8a-aza-8a-homoerythromycin A] | 15 | – | – | – | – | – |
| CC[C@H]1OC(=O)[C@H](C)[C@@H](O[C@H]2C[C@@](C)(OC)[C@@H](O)[C@H](C)O2)[C@H](C)[C@@H](O[C@@H]2O[C@H](C)C[C@H](N(C)C)[C@H]2O)[C@](C)(O)C[C@@H](C)CN(C)[C@H](C)[C@@H](O)[C@]1(C)O [azithromycin, reference compound] | 100 | 37 | 77 | 66 | 72 | inhibition at 50 µM ([5]; A23187 0.5 μM): 15%; inhibition at 50 µM ([5]; fMLP 0.1 μM): 36%; Survival (%) ([6]; 1 mg/kg p.o.): 30%; Survival (%) ([6]; 10 mg/kg p.o.): 60%; Survival (%) ([6]; 100 mg/kg p.o.): 70%; intracellular to extracellular concentration ratio (I/E) [1]: 164±10 |
| CC[C@H]1OC(=O)[C@H](C)[C@@H](O[C@H]2C[C@@](C)(OC)[C@@H](O)[C@H](C)O2)[C@H](C)[C@@H](O[C@@H]2O[C@H](C)C[C@H](N(C)C)[C@H]2O)[C@](C)(OC)C[C@@H](C)C(=O)[C@H](C)[C@@H](O)[C@]1(C)O [clarithromycin, reference compound] | – | 36 | 77 | 78 | 60 | inhibition at 10 µM [7]: 13%; inhibition at 50 µM [7]: 47%; inhibition at 10 µM [8]: 0%; inhibition at 50 µM [8]: 3% |
| CC[C@H]1OC(=O)[C@H](C)[C@@H](O[C@H]2C[C@@](C)(OC)[C@@H](OC(=O)CCN(C)C)[C@H](C)O2)[C@H](C)[C@@H](O[C@@H]2O[C@H](C)C[C@H](N(C)C)[C@H]2O)[C@](C)(OC)C[C@@H](C)C(=O)N[C@H](C)[C@@H](O)[C@]1(C)O [Example 12, 4″-O-(3-dimethylamino-propionyl)-6-O-methyl-9a-aza-9a-homoerythromycin A] | – | 46 | 88 | 87 | 45 | – |
| CC[C@H]1OC(=O)[C@H](C)C(O[C@H]2C[C@@](C)(OC)[C@@H](OC(=O)CCN(CC)CC)[C@H](C)O2)[C@H](C)[C@@H](O[C@@H]2O[C@H](C)C[C@H](N(C)C)[C@H]2O)[C@](C)(OC)C[C@@H](C)C(=O)[C@H](C)[C@H](O)[C@]1(C)O (stereo partly shown) [Example 49, 4″-O-(3-Diethylamino-propionyl)-6-O-methylerithromycin A] | >600 | – | – | – | – | inhibition at 10 µM ([5]; A23187 0.5 μM): 10%; inhibition at 50 µM ([5]; A23187 0.5 μM): 51%; inhibition at 10 µM ([5]; fMLP 0.1 μM): 47%; inhibition at 50 µM ([5]; fMLP 0.1 μM): 72%; inhibition at 10 µM [7]: 59%; inhibition at 50 µM [7]: 81%; inhibition at 10 µM [8]: 51%; inhibition at 50 µM [8]: 100% |
